Results on 4 molecules are retold here after US8063044B2, “Pyrazole derivatives” (Pfizer Inc., priority 2001, dated 2011).

For data set [1], the target named is T1, purified recombinant HIV-1 reverse transcriptase (Human immunodeficiency virus type 1 group M subtype B, UniProt P04585).
T1 construct: purified recombinant HIV-1 reverse transcriptase (RT, EC, 2.7.7.49); made in house; host or cells: Escherichia coli
The data set is described as follows: Inhibition of HIV-1 reverse transcriptase enzyme ([3H]-SPA or flashplate assay). The settings on record: recombinant RT expressed in Escherichia Coli; Poly(rA)-oligo(dT) [3H]-SPA or [3H]-flashplate assay; 5% final DMSO; read-out: IC50 (concentration at which the compound inhibited the reverse transcriptase by 50%). Format: biochemical. The text has this: A. Inhibition of HIV-1 Reverse Transcriptase Enzyme
The reverse transcriptase activity of the compounds of the invention may be assayed as following. Using the purified recombinant HIV-1 reverse transcriptase (RT, EC, 2.7.7.49) obtained by expression in Escherichia Coli, a 96-well plate assay system was established for assaying a large number of samples using either the Poly(rA)-oligo(dT) Reverse Transcriptase [3H]-SPA enzyme assay system (Amersham NK9020) or the [3H]-flashplate enzyme assay system (NEN-SMP 103) and following the manufacturer's recommendations. The compounds were dissolved in 100% DMSO and diluted with the appropriate buffer to a 5% final DMSO concentration. The inhibitory activity was expressed in percent inhibition relative to the DMSO control.

Each structure is given as a SMILES string. pIC50: −log10 of the molar value.

With `CCc1nn(CC#N)c(CC)c1Oc1cc(Cl)cc(Cl)c1`, the melting point lay within 70 to 72 °C. For `CCc1nn(Cc2cc(=O)[nH]c(N)n2)c(CC)c1Oc1cc(Cl)cc(Cl)c1` [Example 7, 2-Amino-6-{[4-(3,5-dichlorophenoxy)-3,5-diethyl-1H-pyrazol-1-yl]methyl}-4(3H)-pyrimidinone], in data set [1], the pIC50 is 4.41. Same read-out and setting: for `CCc1nn(CCO)c(CC)c1Oc1c(C)cc(C#N)cc1C` [Example 20] the value was 5.49; for `CCc1nn(C2CNC2)c(CC)c1Oc1cc(Cl)cc(Cl)c1` [Example 51, 1-(3-Azetidinyl)-4-(3,5-dichlorophenoxy)-3,5-diethyl-1H-pyrazole], 6.61.
